Laboratory results as given in PubChem BioAssay AID1963977 (Molecular Pharmacology Branch, DTP, NCI, 2024).

Test system: 624824-186-R-J3-PDC multicell spheroids, viability
Test: Anticancer human tumor 624824-186-R-J3-PDC patient-derived colon adenocarcinoma cell line growth inhibition [PI3K]
Conditions: for IC50: curve of first compound; for viability, T/C: stronger effect = lower value
Method in brief: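 Viability of mixed-cell spheroids was determined after exposure to pairwise combinations, one partner being inavolisib, alpelisib, duvelisib or copanlisib. Highest tested concentration matched clinical Cmax where known and 10 microM where not, descending in half-log steps.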
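Note: spheroids exposed to agents for seven days before luminescence read.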
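Throughout, for viability, T/C: luminescent signal used as a stand-in for spheroid viability; percent viability relative to DMSO vehicle control wells taken as 100%.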

For `CC(=O)c1c(C)c2cnc(Nc3ccc(N4CCNCC4)cn3)nc2n(C2CCCC2)c1=O` + CC(Nc1ncnc2nc[nH]c12)c1cc2cccc(Cl)c2c(=O)n1-c1ccccc1, which IC50 (second compound 0.0316 µM) is on record?
The IC50 was over 100 nM.

And the IC50 (second compound 0.1 µM)?
The IC50 was over 100 nM.

What about the IC50 (second compound 0.316 µM) of the same molecule?
Its IC50 is over 100 nM.

And the IC50 (second compound 1 µM)?
Its IC50 is over 100 nM.

What about the IC50 (second compound 3.16 µM) of the same molecule?
Its IC50 is over 100 nM.

What about the IC50 (second compound 10 µM) of the same molecule?
Its IC50 is over 100 nM.

What about the viability, T/C (second compound 0.0316 µM, first compound 0.000316 µM) of the same molecule?
Its viability, T/C is 107%.

And the viability, T/C (second compound 0.0316 µM, first compound 0.001 µM)?
The viability, T/C was 96.8%.

What about the viability, T/C (second compound 0.0316 µM, first compound 0.00316 µM) of the same molecule?
The viability, T/C was 103%.

And the viability, T/C (second compound 0.0316 µM, first compound 0.01 µM)?
Its viability, T/C is 113%.

And the viability, T/C (second compound 0.0316 µM, first compound 0.0316 µM)?
Its viability, T/C is 99.7%.

And the viability, T/C (second compound 0.0316 µM, first compound 0.1 µM)?
The viability, T/C was 122%.

What about the viability, T/C (second compound 0.1 µM, first compound 0.000316 µM) of the same molecule?
The viability, T/C was 93%.

And the viability, T/C (second compound 0.1 µM, first compound 0.001 µM)?
The viability, T/C was 91.9%.

What about the viability, T/C (second compound 0.1 µM, first compound 0.00316 µM) of the same molecule?
The viability, T/C was 106%.

What about the viability, T/C (second compound 0.1 µM, first compound 0.01 µM) of the same molecule?
The viability, T/C was 101%.

And the viability, T/C (second compound 0.1 µM, first compound 0.0316 µM)?
Its viability, T/C is 105%.

What about the viability, T/C (second compound 0.1 µM, first compound 0.1 µM) of the same molecule?
Its viability, T/C is 111%.

And the viability, T/C (second compound 0.316 µM, first compound 0.000316 µM)?
Its viability, T/C is 94.9%.

What about the viability, T/C (second compound 0.316 µM, first compound 0.001 µM) of the same molecule?
The viability, T/C was 102%.

And the viability, T/C (second compound 0.316 µM, first compound 0.00316 µM)?
Its viability, T/C is 99.9%.

And the viability, T/C (second compound 0.316 µM, first compound 0.01 µM)?
Its viability, T/C is 103%.

What about the viability, T/C (second compound 0.316 µM, first compound 0.0316 µM) of the same molecule?
Its viability, T/C is 107%.

And the viability, T/C (second compound 0.316 µM, first compound 0.1 µM)?
Its viability, T/C is 119%.

And the viability, T/C (second compound 1 µM, first compound 0.000316 µM)?
The viability, T/C was 94.4%.

What about the viability, T/C (second compound 1 µM, first compound 0.001 µM) of the same molecule?
Its viability, T/C is 103%.

What about the viability, T/C (second compound 1 µM, first compound 0.00316 µM) of the same molecule?
Its viability, T/C is 102%.

What about the viability, T/C (second compound 1 µM, first compound 0.01 µM) of the same molecule?
The viability, T/C was 104%.

And the viability, T/C (second compound 1 µM, first compound 0.0316 µM)?
Its viability, T/C is 116%.

What about the viability, T/C (second compound 1 µM, first compound 0.1 µM) of the same molecule?
Its viability, T/C is 109%.

And the viability, T/C (second compound 3.16 µM, first compound 0.000316 µM)?
Its viability, T/C is 94.6%.

What about the viability, T/C (second compound 3.16 µM, first compound 0.001 µM) of the same molecule?
The viability, T/C was 116%.

And the viability, T/C (second compound 3.16 µM, first compound 0.00316 µM)?
The viability, T/C was 113%.

What about the viability, T/C (second compound 3.16 µM, first compound 0.01 µM) of the same molecule?
Its viability, T/C is 103%.

What about the viability, T/C (second compound 3.16 µM, first compound 0.0316 µM) of the same molecule?
Its viability, T/C is 99.2%.

And the viability, T/C (second compound 3.16 µM, first compound 0.1 µM)?
Its viability, T/C is 110%.

And the viability, T/C (second compound 10 µM, first compound 0.000316 µM)?
The viability, T/C was 97.7%.

And the viability, T/C (second compound 10 µM, first compound 0.001 µM)?
The viability, T/C was 99.8%.

And the viability, T/C (second compound 10 µM, first compound 0.00316 µM)?
Its viability, T/C is 94.7%.

What about the viability, T/C (second compound 10 µM, first compound 0.01 µM) of the same molecule?
Its viability, T/C is 89.5%.

And the viability, T/C (second compound 10 µM, first compound 0.0316 µM)?
Its viability, T/C is 90.3%.

And the viability, T/C (second compound 10 µM, first compound 0.1 µM)?
Its viability, T/C is 83%.
